From patent publication US20260021114A1, “COMPOSITION FOR LOWERING BLOOD LIPIDS AND CHOLESTEROL, PREPARATION METHOD THEREFOR, AND APPLICATION THEREOF” (Health and Happiness (H&H) Hong Kong Limited, priority 2022, published 2026)
Marks after values point to notes of the source that are not given here.

Columns and labels:
hmgcra gene = assay: Effect on the hmgcra gene expression levels (q-PCR); format: in vivo, zebrafish
Protocol: 5 dpf melanin allele mutant translucent Albino strain zebrafish were randomly selected and put in beakers, with 30 fish per beaker. The atorvastatin calcium and samples (see Table 7 for final concentration) were administered by dissolving in water respectively, and the normal control group and the model control group were set at the same time, and the volume of each beaker was 25 mL. Except for the normal control group, all other experimental groups were given high-fat feed in water (the high-fat feed was glucose with a final concentration of 3 wt % and egg yolk powder with a final concentration of 1.5 mg/mL) to establish a zebrafish hyperlipidemia model. The samples were co-processed with high-fat feed for 15 hours (co-processed for 7.5 hours per day). After treatment at 28° C. for 48 hours, total RNA of 2.00 μg zebrafish sample was taken, and 20.0 μL cDNA was synthesized according to the instructions of the cDNA first chain synthesis kit. The expression of β-actin and hmgcra genes was detected by q-PCR (see Table 6 for the sequence of primers). The RNA phase of hmgcra gene was calculated using […] as the internal reference of gene expression. Statistical processing results are expressed as mean +SE. Statistical analysis was performed with SPSS26.0 software, p<0.05 indicated a statistically significant difference.

[1] = system: zebrafish hyperlipidemia model; assay: Efficacy evaluation of lowering cholesterol (cholesterol fluorescent probe, tail blood vessels); format: in vivo
Protocol: 5 dpf melanin allele mutant translucent Albino strain zebrafish were randomly selected and put in beakers, with 30 fish per beaker. The atorvastatin calcium and samples (see Table 4 for final concentration) were administered by dissolving in water respectively, and the normal control group and the model control group were set at the same time, and the volume of each beaker was 25 mL. Except for the normal control group, all other experimental groups were given high-fat feed in water (the high-fat feed was glucose with a final concentration of 3wt % and egg yolk powder with a final concentration of 1.5 mg/mL) to establish a zebrafish hyperlipidemia model. The samples were co-processed with high-fat feed for 15 hours (co-processed for 7.5 hours per day and kept in fish farming water at 28° C. for the rest of the day). After treatment at 28° C. for 32 hours, cholesterol fluorescent probe (final concentration 1 mg/mL) was administered. After continuing the treatment for 16 hours, 10 zebrafish from each experimental group were randomly selected and photographed under a fluorescence microscope. […] The cholesterol fluorescence intensity of the zebrafish tail blood vessels was analyzed, and the efficacy lowering cholesterol of the samples was evaluated by the statistical analysis results of this index. Statistical processing results are expressed as mean±SE. […]

model zebrafish = assay: MTC determination in zebrafish hyperlipidemia model; format: in vivo
Protocol: 5 dpf melanin allele mutant translucent Albino strain zebrafish were randomly selected and put in beakers, with 30 fish per beaker (experimental group). The atorvastatin calcium and samples (see Table 2 for final concentration) were administered by dissolving in water respectively, and the normal control group and the model control group were set at the same time, and the volume of each beaker was 25 mL. Except for the normal control group, all other experimental groups were given high-fat feed in water (the high-fat feed was glucose with a final concentration of 3 wt % and egg yolk powder with a final concentration of 1.5 mg/mL) to establish a zebrafish hyperlipidemia model. The samples were co-processed with high-fat feed for 15 hours (co-processed for 7.5 hours per day and kept in fish farming water at 28° C. for the rest of the day). During sample processing, the number of dead zebrafish in each experimental group was counted every day and removed in time. After treatment at 28° C. for 48 hours, the minimum toxic concentration (MTC) of atorvastatin calcium and samples to model zebrafish was determined.

[2] = system: zebrafish hyperlipidemia model; assay: Efficacy evaluation of lowering triglyceride (Oil Red O staining of tail blood vessels); format: in vivo
Protocol: 5 dpf melanin allele mutant translucent Albino strain zebrafish were randomly selected and put in beakers, with 30 fish per beaker. The atorvastatin calcium and samples (see Table 3 for final concentration) were administered by dissolving in water respectively, and the normal control group and the model control group were set at the same time, and the volume of each beaker was 25 mL. Except for the normal control group, all other experimental groups were given high-fat feed in water (the high-fat feed was glucose with a final concentration of 3wt % and egg yolk powder with a final concentration of 1.5 mg/mL) to establish a zebrafish hyperlipidemia model. The samples were co-processed with high-fat feed for 15 hours (co-processed for 7.5 hours per day and kept in fish farming water at 28° C. for the rest of the day). After treatment at 28° C. for 48 hours, Oil Red O was given for whole-body fat staining. After the staining, 10 zebrafish from each experimental group were randomly selected and photographed under a dissection microscope. […] The staining intensity of the zebrafish tail blood vessels was analyzed, and the efficacy of atorvastatin calcium and sample in lowering triglycerides was evaluated based on the statistical analysis results of this indicator. Statistical processing results are expressed as mean +SE. […]

CC(C)c1c(C(=O)Nc2ccccc2)c(-c2ccccc2)c(-c2ccc(F)cc2)n1CC[C@@H](O)C[C@@H](O)CC(=O)[O-].CC(C)c1c(C(=O)Nc2ccccc2)c(-c2ccccc2)c(-c2ccc(F)cc2)n1CC[C@@H](O)C[C@@H](O)CC(=O)[O-].[Ca+2] [Atorvastatin calcium]
Relative expression of hmgcra gene (mean ± SE) (hmgcra gene; 11.6 μg/mL, 48 hours, β-actin internal reference, model control = 1): 0.542 ± 0.003***^a | reduction of hmgcra gene expression levels compared with the model control group (in words) (hmgcra gene; P<0.05 vs model control group): significantly reduce the hmgcra gene expression levels | Cholesterol content (Unit in pixels, mean ± SE) ([1]; 11.6 μg/mL, 48 hours, tail blood vessels cholesterol fluorescence intensity): 122765 ± 11371 pixels | lowering of cholesterol compared with the model control group (in words) ([1]; P<0.05 vs model control group): significantly lower cholesterol | Death rates (%) (model zebrafish; 11.6 μg/mL, n = 30, 48 hours): 0% | Number of deaths (fish) (model zebrafish; 11.6 μg/mL, n = 30, 48 hours): 0 fish | MTC (model zebrafish; model zebrafish, high-fat feed, 28° C. for 48 hours): 11.6 µg/mL | Triglyceride content (Unit in pixels, mean ± SE) ([2]; 11.6 μg/mL, 48 hours, tail blood vessels staining intensity): 11104 ± 588***^c pixels | lowering of triglycerides compared with the model control group (in words) ([2]; P<0.05 vs model control group): significantly lower triglycerides
